From patent US8404664B2, “Phosphonated Rifamycins and uses thereof for the prevention and treatment of bone and joint infections” (Targanta Therapeutics, Inc., priority 2005, dated 2013)
≈ marks a conversion by molar mass, not a printed value.

Legend:
S. aureus RN4220 = experiment: Antibacterial susceptibility (MIC), NCCLS broth microdilution; format: cell-based; settings: CAMHB, 37° C., 18 h
Protocol: (§1) Susceptibility of S. aureus strains to the known antibiotics and synthesized compounds was determined by following the guidelines set by NCCLS (M26-A). Compounds were diluted two-fold serially in DMSO and transferred to cation-adjusted Mueller Hinton broth (CAMHB; Becton Dickinson). 50 μL of compounds diluted in CAMHB was mixed with 100 μL of bacteria diluted in CAMHB in 96-well microtiter plates. The final concentration of micro-organisms in the assay was 5×10^5 c.f.u. per mL and the final concentration of DMSO in the assay was 1.25%. Assays were set up in duplicate and incubated at 37° C. for 18 h. The lowest concentration of compound that inhibited visible growth was reported as the minimum inhibitory concentration (MIC).

[1] = system: S. aureus BK85 (Fluoroquinolone resistant MRSA); experiment: as above; format: cell-based
Protocol: as §1

[2] = system: S. aureus ATCC 43300 (Fluoroquinolone sensitive MRSA); experiment: as above; format: cell-based
Protocol: as §1

S. aureus ATCC 13709 [3] = experiment: as above; format: cell-based; settings: for Antibacterial activity (in words, summary of Table 1): summary over the strains of Table 1
Protocol: as §1

[4] = system: S. aureus ATCC 13709 Novobiocin resistant mutant (bone infection); experiment: Prophylactic efficacy in rat model of S. aureus bone infection; format: in vivo
Protocol: Specifically, a spontaneous Novobiocin resistant mutant strain of S. aureus ATCC 13709 (a clinical osteomyelitis isolate), was grown overnight at 37° C. in brain heart infusion broth (BHIB). After 16 h of growth, cells were subcultured into fresh BHIB and incubated for 4 to 5 h at 37° C. The cells were washed twice with phosphate-buffered saline (PBS) and resuspended in BHIB supplemented with 10% (vol./vol.) fetal bovine serum at a density of approximately 10^10 colony forming units (CFU)/ml (based upon turbidimetry). The suspension was aliquoted and a portion was used to check the CFU count. The culture was stored frozen (−80° C.) and was used without subculture. For use as an inoculum the culture was thawed, diluted in PBS and kept in an ice bath until it was used.
Animals were infected as described by O'Reilly et al. (Antimicrobial Agents and Chemotherapy (1992), 36(12): 2693-97) to generate the bone infection. Female CD rats (age, 57 to 70 days; n=5/group; Charles River, St-Constant, Canada) were anaesthetized by isofluorane before and during the surgery. Following complete induction of anesthesia, the rat was placed ventral side up and hair was shaved from the surgical site. The skin over the leg was cleaned and disinfected (proviodine-ethanol 70%). A longitudinal incision below the knee joint was made in the sagital plane. The incision was made over the bone below the “knee joint” (tibia head or condyle) but not completely extending to the ankle. A high speed drill fitted with a 2 mm bulb bit was used to drill a hole into the medullar cavity of the tibia. Rats were injected intra-tibially with 0.05 ml 5% sodium morrhuate (sclerosing agent) and then with 0.05 ml of S. aureus suspension (ca. 2×10^7 CFU/rat). The hole was sealed by applying a small amount of dry dental cement which immediately absorbs fluids and adheres to the site. The wound was closed using 3 metal skin clips. Moxifloxacin (as a positive control) was injected once at 10 mg/kg intravenously 1 h postinfection in saline, while the Rifamycin derived prodrugs (prepared in 0.9% saline) were injected at the dose indicated in Table 3 as a single intravenous bolus at different time points prior to the infection.
Infected rats were sacrificed by CO2 asphyxiation 24 h postinfection to monitor the bacterial CFU count. Infected tibiae were removed, dissected free of soft tissue, and weighed. The bones were ground, resuspended in 5 ml 0.9% NaCl, serially diluted and processed for quantitative cultures. For compounds 50, 68 and 81, 1 ml of the 0.9% NaCl solution was added to 50 mg of charcoal before serial dilutions. Treatment efficacy was measured in terms of Log viable bacteria (Log CFU per gram of bone). […] The limit of detection is 2 Log CFU. […] Differences were considered significant when the P value was <0.05 when comparing treated infected animals to the untreated infected ones. The doses used, the amount of time separating the treatment from the time of infection and the treatment outcomes are shown in Table 3.

[5] = system: E. coli LBB925 (tolC mutant); experiment: Antibacterial susceptibility (MIC), NCCLS broth microdilution; format: cell-based; settings: tolC mutant
[6] = Regeneration of drug from bone powder-bound prodrug; format: in vitro ADME; settings: for % Conversion of bone-bound prodrug to parent drug: 24 h incubation, 37° C.; for Impact of the medium on the rate of regeneration of parent drug (in words): serum compared to PBS
Protocol: Amounts of parent drug “regenerated” from the phosphonated prodrug were measured as follows. Washed bone powder-bound prodrugs from the above experiment were resuspended in 400 μL PBS+2% DMSO or in 400 μL 50% (v/v in PBS+2% DMSO) human or rat serum. The suspension was incubated overnight at 37° C., centrifuged at 13,000 rpm for 2 min and the supernatant was recovered. The amount of regenerated parent drug in the supernatant was determined by measurements using the microbiological assay that was previously described for the prodrugs themselves. The amount of prodrug was deduced from standard curves of known amounts of parent drug that were used as reference for each experiment.

S. aureus ATCC 13709 [7] = experiment: Antibacterial susceptibility (MIC) in the presence of serum; format: cell-based
Protocol: as §1
Susceptibility testing experiments were also carried out in the presence of serum.
These experiments were carried out similar to the susceptibility testing with the following modifications. 75 μL of compounds diluted in CAMHB was mixed with 75 μL of bacteria diluted in 100% serum from any given source (commercial pooled mouse serum (MS) and human serum (HS), Equitech-Bio Inc.) or diluted in 8% purified human serum albumin (HSA) (Calbiochem). The final concentration of animal serum in the assay was 50% and the final concentration of purified human serum albumin in the assay was 4%; the concentrations of all other components were identical to those described for susceptibility testing.

[8] = system: S. aureus ATCC 13709 Novobiocin and Rifampicin resistant variant; experiment: microbe, parasite or virus in culture; format: cell-based; settings: for Minimum inhibitory concentration, S. aureus ATCC 13709 variant: Novobiocin and Rifampicin resistant variant
Protocol: as §1

SMILES | Minimum inhibitory concentration, S. aureus RN4220 (S. aureus RN4220) [µg/mL] | Minimum inhibitory concentration, S. aureus BK85 [1] [µg/mL] | Minimum inhibitory concentration, S. aureus ATCC 43300 [2] [µg/mL] | Minimum inhibitory concentration, S. aureus ATCC 13709 (S. aureus ATCC 13709 [3]) [µg/mL] | Prophylactic effect (in words) ([4]; rat bone infection, doses and times of Table 3, t-test p<0.05) | Measured bacterial titer ([4]; rat tibia 24 h postinfection, single dose 12 mg/kg parent drug equivalent, 1 day prior to infection) | Minimum inhibitory concentration, E. coli LBB925 [5] [µg/mL] | Regeneration of parent drug once bound to bone (in words) [6] | % Conversion of bone-bound prodrug to parent drug ([6]; 50% Rat Serum) [%] | % Conversion of bone-bound prodrug to parent drug ([6]; PBS) | Impact of the medium on the rate of regeneration of parent drug (in words) [6] | Impact of serum on the MICs (in words) (S. aureus ATCC 13709 [7]) | Minimum inhibitory concentration, S. aureus ATCC 13709 + 50% Human Serum (S. aureus ATCC 13709 [7]) [µg/mL] | Minimum inhibitory concentration, S. aureus ATCC 13709 + 50% Mouse Serum (S. aureus ATCC 13709 [7]) [µg/mL] | Antibacterial activity (in words, summary of Table 1) (S. aureus ATCC 13709 [3]) | Activity against the Rifampicin resistant variant of S. aureus ATCC13709 (in words) [8] | Minimum inhibitory concentration, S. aureus ATCC 13709 variant [8] [µg/mL] | Minimum inhibitory concentration, S. aureus ATCC 13709 + 50% Rat Serum (S. aureus ATCC 13709 [7]) [µg/mL]
CO[C@H]1/C=C/O[C@@]2(C)Oc3c(C)c(O)c4c(c3C2=O)C2=NC3(CCN(CC(C)C)CC3)NC2=C(NC(=O)/C(C)=C\C=C\[C@H](C)[C@H](OC(=O)CNC(=O)CC(P(=O)(O)O)P(=O)(O)O)[C@@H](C)[C@@H](O)[C@@H](C)[C@H](OC(C)=O)[C@@H]1C)C4=O [Compound 21, 21-O-(N-(3,3-Bisphosphonopropanoyl)-glycinoyl)-1′,4-didehydro-1-deoxy-1,4-dihydro-5′-(2-methylpropyl)-1-oxorifamycin XIV] | 32 (≈ 28.6 µM) | 16 (≈ 14.3 µM) | 16 (≈ 14.3 µM) | 16 (≈ 14.3 µM) | lacks efficacy | 6.59 ± 0.90 Log CFU/g of bone | >128 | not able to regenerate | 0.02 | <lod | not significantly impacted | – | – | – | – | – | – | –
CCN(CC)CC.CCN(CC)CC.CO[C@H]1/C=C/O[C@@]2(C)Oc3c(C)c(O)c4c(c3C2=O)C2=NC3(CCN(CC(C)C)CC3)NC2=C(NC(=O)/C(C)=C\C=C\[C@H](C)[C@H](OC(=O)CCC(=O)NCCCC(=O)NC(P(=O)(O)O)P(=O)(O)O)[C@@H](C)[C@@H](O)[C@@H](C)[C@H](OC(C)=O)[C@@H]1C)C4=O [Compound 45, 21-O-(3-(3-((bisphosphonomethyl)carbamoyl)propylcarbamoyl)propanoyl)-1′,4-didehydro-1-deoxy-1,4-dihydro-5′-(2-methylpropyl)-1-oxorifamycin XIV] | 64 | 64 | 64 | 32 | – | – | >128 | not able to regenerate | 0.002 | <lod | not significantly impacted | no impact | 64 | 128 | near complete loss of activity | complete lack of activity | >128 | –
CCN(CC)CC.CCN(CC)CC.CO[C@H]1/C=C/O[C@@]2(C)Oc3c(C)c(O)c4c(c3C2=O)C2=NC3(CCN(CC(C)C)CC3)NC2=C(NC(=O)/C(C)=C\C=C\[C@H](C)[C@H](OC(=O)CCC(=O)NC(P(=O)(O)O)P(=O)(O)O)[C@@H](C)[C@@H](O)[C@@H](C)[C@H](OC(C)=O)[C@@H]1C)C4=O [Compound 39, 21-O-(3-((bisphosphonomethyl)carbamoyl)propanoyl)-1′,4-didehydro-1-deoxy-1,4-dihydro-5′-(2-methylpropyl)-1-oxorifamycin XIV] | >128 | >128 | >128 | >128 | – | – | 128 | not able to regenerate | – | – | – | no impact | >128 | >128 | near complete loss of activity | complete lack of activity | >128 | 64
CO[C@H]1/C=C/O[C@@]2(C)Oc3c(C)c(O)c4c(=O)c(c5oc6cc(N7CCN(CC(C)C)CC7)cc(O)c6nc-5c4c3C2=O)NC(=O)/C(C)=C\C=C\[C@H](C)[C@H](OC(=O)COC(=O)CCC(=O)NC(P(=O)(O)O)P(=O)(O)O)[C@@H](C)[C@@H](O)[C@@H](C)[C@H](OC(C)=O)[C@@H]1C [Compound 84, 21-O-(2-((3-(bisphosphonomethyl)carbamoyl)propanoyloxy)acetyl)-1′,4-Didehydro-1-deoxy-1,4-dihydro-3′-hydroxy-5′-[4-(2-methylpropyl)-1-piperazinyl]-1-oxorifamycin VIII] | 1 (≈ 0.786 µM) | 1 (≈ 0.786 µM) | 1 (≈ 0.786 µM) | 1 (≈ 0.786 µM) | – | – | >128 | not able to regenerate | 0.12 | <lod | significant acceleration | – | 16 | 16 | – | complete lack of activity | >128 | 1
